Data from patent US20230203003A1, “Notch Inhibitors and Uses Thereof” (StemSynergy Therapeutics, Inc., priority 2020, published 2023).
Where a name gives a salt, the structure may show the parent alone. Read-outs that look alike come from different tables or passages of the source.

Legend:
[1] = biological target: T1, hNotch1ICD (Homo sapiens, UniProt P46531); experiment: Notch1 Reporter Assay (Dox-inducible Notch1-ICD, CSL-responsive luciferase in 293A cells); type: cell-based
T1 construct: pLV[Tet]-Puro-TRE3G>Notch1-ICD; expressed in transfected cells; host or cells: 293A cells
T1 sequence (P46531 1754-2555 limits assumed): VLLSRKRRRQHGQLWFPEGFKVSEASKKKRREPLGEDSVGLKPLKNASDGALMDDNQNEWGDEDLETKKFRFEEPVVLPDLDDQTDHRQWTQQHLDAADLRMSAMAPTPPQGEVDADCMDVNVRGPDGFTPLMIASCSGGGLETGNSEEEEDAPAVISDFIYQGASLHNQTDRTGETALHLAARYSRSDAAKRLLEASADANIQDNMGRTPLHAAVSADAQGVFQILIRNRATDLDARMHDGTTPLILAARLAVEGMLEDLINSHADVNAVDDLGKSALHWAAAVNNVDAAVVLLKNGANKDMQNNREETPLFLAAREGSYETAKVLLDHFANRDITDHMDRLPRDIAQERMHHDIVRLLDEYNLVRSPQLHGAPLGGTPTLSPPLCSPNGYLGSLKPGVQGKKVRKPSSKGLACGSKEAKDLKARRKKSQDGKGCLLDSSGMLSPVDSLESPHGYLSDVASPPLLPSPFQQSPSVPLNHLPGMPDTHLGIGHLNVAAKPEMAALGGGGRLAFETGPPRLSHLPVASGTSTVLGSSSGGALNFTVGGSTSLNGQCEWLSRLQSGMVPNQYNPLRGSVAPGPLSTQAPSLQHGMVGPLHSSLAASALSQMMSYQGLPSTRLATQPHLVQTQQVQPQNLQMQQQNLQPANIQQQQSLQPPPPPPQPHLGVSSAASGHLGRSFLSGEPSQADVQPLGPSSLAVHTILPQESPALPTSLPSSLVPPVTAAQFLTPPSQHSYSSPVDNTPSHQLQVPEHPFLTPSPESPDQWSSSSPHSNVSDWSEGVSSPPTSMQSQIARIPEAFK
Experimental: 293A cells expressing 1) pCMV-Tet-On 3G, 2) pLV[Tet]-Puro-TRE3G>Notch1-ICD, 3) pLV[Tet]-Puro-TRE3G>Notch2-ICD, 4) pLV[Tet]-Puro-TRE3G>Notch3-ICD, and 5) pCSL-RElement-Luc were used. When Doxycycline is added, the Tet-ON gene activates expression of hNotch1ICD, which together with endogenous NTC components binds to CSL responsive elements (pCSL-RElement-Luc) and expresses luciferase. 1 ×× 10^4 cells are plated in 100 µL (96-well format). 24 h later, compounds (10 mM stock in DMSO) are diluted in DMSO to 200X, then added (5 ul into 1 mL) to cell culture media containing 50 ng/mL Dox. This is then added 1:1 to cells. Final DMSO = 0.25%, Dox = 25 ng/mL. After 24 h, media is discarded, and cells are lysed in passive lysis buffer (Promega). Cells are rocked at room temperature for 15 min and then lysate is divided for luciferase assay (Luciferase Assay System, Promega) and cell viability (CellTiter Glo 2.0, Promega). Raw luciferase is normalized to cell viability, and then scaled to DMSO wells. Results are analyzed and IC50′s are determined in GraphPad by nonlinear regression curve fitting (4 parameter) of dose response curves.

[2] = test system: OE33 Esophageal Adenocarcinoma cell line; experiment: OE33 Colony Formation Assay; type: cell-based; details: OE33 cells, 200 cells/well, 7 days, CellTiter-Glo
Experimental: OE33 Colony Formation Assay
The OE33 Esophageal Adenocarcinoma cell line was cultured and plated into 96-well tissue culture plates under sparse conditions (200 cells/well). Test compounds were serially diluted in DMSO and then into culture media (final DMSO concentration = 0.1%). Compound/media was then added to cells every 48 hours for a total of 7 days. Clonogenic growth was assessed using the CellTiter-Glo reagent, according to manufacturer (Promega) specifications. Percent inhibition was calculated as the percent of luminescence normalized to control (0.1% DMSO) wells. Nonlinear regression curve fitting was performed using GraphPad Prism software to determine EC50′s.

[3] = 293A cells, 24 h, luciferase normalized to cell viability, read-out: Notch1 Reporter Assay IC50
[4] = value printed in the synthesis heading of the compound, read-out: Notch1 Reporter Assay IC50

CC(C)Cn1c(=O)c(C(=O)Nc2ccccc2N2CCN(C)CC2)c(O)c2ccccc21 [568(02)]
IC50 [1, 3]: 6.8 µM
EC50 ([2]; Homo sapiens, OE33, 168 h): 2.6 µM

CC(C)Cn1c(=O)c(C(=O)Nc2ccc(N3CCN(C)CC3)cc2)c(O)c2ccccc21 [569(02)]
IC50 [1, 3]: 4.9 µM
EC50 ([2]; Homo sapiens, OE33, 168 h): 1.8 µM

CC(C)Cn1c(=O)c(C(=O)Nc2ccc(F)cc2N2CCN(C)CC2)c(O)c2ccccc21 [570(02)]
IC50 [1, 3]: 5.6 µM
EC50 ([2]; Homo sapiens, OE33, 168 h): 2 µM

CC(C)Cn1c(=O)c(C(=O)Nc2cc(F)ccc2N2CCN(C)CC2)c(O)c2ccccc21 [571(02)]
IC50 [1, 3]: 7.9 µM
EC50 ([2]; Homo sapiens, OE33, 168 h): 2.5 µM

CC(C)Cn1c(=O)c(C(=O)Nc2ccc(N3CCN(C)CC3)c(F)c2)c(O)c2ccccc21 [572(02)]
EC50 ([2]; Homo sapiens, OE33, 168 h): 2.2 µM

CC(C)Cn1c(=O)c(C(=O)Nc2cccc(F)c2)c(O)c2cc(N3CCN(C)CC3)ccc21 [577(02)]
IC50 [1, 3]: 6.4 µM
EC50 ([2]; Homo sapiens, OE33, 168 h): 0.66 µM

CC(C)Cn1c(=O)c(C(=O)Nc2cc(F)c(N3CCN(C)CC3)c(F)c2)c(O)c2ccccc21 [582(02)]
IC50 [1, 3]: 1.9 µM
EC50 ([2]; Homo sapiens, OE33, 168 h): 1.1 µM

CC(C)Cn1c(=O)c(C(=O)Nc2ccc(F)c(N3CCN(C)CC3)c2)c(O)c2ccccc21 [584(02)]
IC50 [1, 3]: 6 µM
EC50 ([2]; Homo sapiens, OE33, 168 h): 2 µM

Cc1cccnc1NC(=O)c1c(O)c2ccccc2n(Cc2ccccc2)c1=O [SSTN-408]
EC50 ([2]; listed as 408): 3.7 µM

Cc1cccnc1NC(=O)c1c(O)c2ccccc2n(Cc2ccccc2)c1=O [SSTN-452]
EC50 ([2]; listed as 452): 1.6 µM

CC(C)Cn1c(=O)c(C(=O)Nc2cccc(F)c2)c(O)c2c(N3CCNCC3)cccc21 [SSTN-587_HCl salt, N-(3-fluorophenyl)-4-hydroxy-1-isobutyl-2-oxo-5-(piperazin-1-yl)-1,2-dihydroquinoline-3-carboxamide hydrochloride salt]
IC50 [1, 3]: 3.8 µM
IC50 [1, 4]: 3.76 µM
EC50 ([2]; Homo sapiens, OE33, 168 h): 1.7 µM

CC(C)Cn1c(=O)c(C(=O)Nc2cccc(F)c2)c(O)c2c(N3CCN(C)CC3)cccc21 [SSTN-588, N-(3-fluorophenyl)-4-hydroxy-1-isobutyl-5-(4-methylpiperazin-1-yl)-2-oxo-1,2-dihydroquinoline-3-carboxamide]
IC50 [1, 4]: 10.3 µM

CC(C)Cn1c(=O)c(C(=O)Nc2cccc(F)c2)c(O)c2c(N3CCN(C)CC3)cccc21 [SSTN-588_HCl salt, N-(3-fluorophenyl)-4-hydroxy-1-isobutyl-5-(4-methylpiperazin-1-yl)-2-oxo-1,2-dihydroquinoline-3-carboxamide hydrochloride salt]
IC50 [1, 4]: 9.8 µM

Cc1cccnc1NC(=O)c1c(O)c2ccccc2n(CC(C)C)c1=O [compound 513, 4-hydroxy-1-isobutyl-N-(3-methylpyridin-2-yl)-2-oxo-1,2-dihydroquinoline-3-carboxamide]
IC50 [1, 3]: 11.1 µM

COc1ccc2c(c1)c(O)c(C(=O)Nc1ncccc1C)c(=O)n2CC(C)C [compound 514, 4-hydroxy-1-isobutyl-6-methoxy-N-(3-methylpyridin-2-yl)-2-oxo-1,2-dihydroquinoline-3-carboxamide]
IC50 [1, 3]: 13.6 µM

Cc1cc(NC(=O)c2c(O)c3ccccc3n(CC(C)C)c2=O)on1 [compound 517, 4-hydroxy-1-isobutyl-N-(3-methylisoxazol-5-yl)-2-oxo-1,2-dihydroquinoline-3-carboxamide]
IC50 ([1]; Notch1 Reporter Assay IC50, µM, 293A cells, 24 h, luciferase normalized to cell viability): 22.6 µM

CC(C)Cn1c(=O)c(C(=O)Nc2ccccn2)c(O)c2ccccc21 [compound 518, 4-hydroxy-1-isobutyl-2-oxo-N-(pyridin-2-yl)-1,2-dihydroquinoline-3-carboxamide]
IC50 [1, 3]: 18.7 µM

CC(C)Cn1c(=O)c(C(=O)Nc2ncccc2O)c(O)c2ccccc21 [compound 519, 4-hydroxy-N-(3-hydroxypyridin-2-yl)-1-isobutyl-2-oxo-1,2-dihydroquinoline-3-carboxamide]
IC50 [1, 3]: 17.8 µM

CC(C)Cn1c(=O)c(C(=O)Nc2cc(F)ccn2)c(O)c2ccccc21 [compound 522, N-(4-fluoropyridin-2-yl)-4-hydroxy-1-isobutyl-2-oxo-1,2-dihydroquinoline-3-carboxamide]
IC50 [1, 3]: 17.2 µM
EC50 ([2]; Homo sapiens, OE33, 168 h): 6 µM

CC(C)Cn1c(=O)c(C(=O)Nc2ccon2)c(O)c2ccccc21 [compound 525, 4-hydroxy-1-isobutyl-N-(isoxazol-3-yl)-2-oxo-1,2-dihydroquinoline-3-carboxamide]
IC50 [1, 3]: 13.8 µM
EC50 ([2]; Homo sapiens, OE33, 168 h): 7.4 µM

CC(C)Cn1c(=O)c(C(=O)Nc2cc(Cl)ccn2)c(O)c2ccccc21 [compound 526, N-(4-chloropyridin-2-yl)-4-hydroxy-1-isobutyl-2-oxo-1,2-dihydroquinoline-3-carboxamide]
IC50 [1, 3]: 20.3 µM

CC(C)Cn1c(=O)c(C(=O)Nc2cc(N3CCOCC3)ccn2)c(O)c2ccccc21 [compound 527, 4-hydroxy-1-isobutyl-N-(4-morpholinopyridin-2-yl)-2-oxo-1,2-dihydroquinoline-3-carboxamide]
IC50 [1, 3]: 8.5 µM

CC(C)Cn1c(=O)c(C(=O)Nc2ncco2)c(O)c2ccccc21 [compound 528, 4-hydroxy-1-isobutyl-N-(oxazol-2-yl)-2-oxo-1,2-dihydroquinoline-3-carboxamide]
IC50 [1, 3]: 14.3 µM

COc1ccnc(NC(=O)c2c(O)c3ccccc3n(CC(C)C)c2=O)c1 [compound 532, 4-hydroxy-1-isobutyl-N-(4-methoxypyridin-2-yl)-2-oxo-1,2-dihydroquinoline-3-carboxamide]
IC50 [1, 3]: 12.4 µM

CC(C)Cn1c(=O)c(C(=O)Nc2ccn(C)n2)c(O)c2ccccc21 [compound 533, 4-hydroxy-1-isobutyl-N-(1-methyl-1H-pyrazol-3-yl)-2-oxo-1,2-dihydroquinoline-3-carboxamide]
IC50 [1, 3]: 22.5 µM

CC(C)Cn1c(=O)c(C(=O)Nc2cnn(C)c2)c(O)c2ccccc21 [compound 534, 4-hydroxy-1-isobutyl-N-(1-methyl-1H-pyrazol-4-yl)-2-oxo-1,2-dihydroquinoline-3-carboxamide]
IC50 [1, 3]: 11.3 µM
EC50 ([2]; Homo sapiens, OE33, 168 h): 2.5 µM

Cc1ccccc1NC(=O)c1c(O)c2ccccc2n(CC(C)C)c1=O [compound 535, 4-hydroxy-1-isobutyl-2-oxo-N-(o-tolyl)-1,2-dihydroquinoline-3-carboxamide]
IC50 [1, 3]: 5.9 µM

CC(C)Cn1c(=O)c(C(=O)Nc2ccccc2F)c(O)c2ccccc21 [compound 537, N-(2-fluorophenyl)-4-hydroxy-1-isobutyl-2-oxo-1,2-dihydroquinoline-3-carboxamide]
IC50 [1, 3]: 5.1 µM

CC(C)Cn1c(=O)c(C(=O)Nc2cccc(F)c2)c(O)c2ccccc21 [compound 538, N-(3-fluorophenyl)-4-hydroxy-1-isobutyl-2-oxo-1,2-dihydroquinoline-3-carboxamide]
IC50 [1, 3]: 9.6 µM
EC50 ([2]; Homo sapiens, OE33, 168 h): 1.7 µM

CC(C)Cn1c(=O)c(C(=O)Nc2ccc(F)cc2)c(O)c2ccccc21 [compound 539, N-(4-fluorophenyl)-4-hydroxy-1-isobutyl-2-oxo-1,2-dihydroquinoline-3-carboxamide]
IC50 [1, 3]: 6.6 µM

Cc1ncccc1NC(=O)c1c(O)c2ccccc2n(CC(C)C)c1=O [compound 540, 4-hydroxy-1-isobutyl-N-(2-methylpyridin-3-yl)-2-oxo-1,2-dihydroquinoline-3-carboxamide]
IC50 [1, 3]: 18.5 µM

CC(C)Cn1c(=O)c(C(=O)NCc2ccco2)c(O)c2ccccc21 [compound 541, N-(furan-2-ylmethyl)-4-hydroxy-1-isobutyl-2-oxo-1,2-dihydroquinoline-3-carboxamide]
IC50 [1, 3]: 15.1 µM

Cc1cc(NC(=O)c2c(O)c3ccccc3n(CC(C)C)c2=O)n[nH]1 [compound 549, 4-hydroxy-1-isobutyl-N-(5-methyl-1H-pyrazol-3-yl)-2-oxo-1,2-dihydroquinoline-3-carboxamide]
IC50 [1, 3]: 10.1 µM

Cc1ccncc1NC(=O)c1c(O)c2ccccc2n(CC(C)C)c1=O [compound 550, 4-hydroxy-1-isobutyl-N-(4-methylpyridin-3-yl)-2-oxo-1,2-dihydroquinoline-3-carboxamide]
IC50 [1, 3]: 20.8 µM

Cc1cnccc1NC(=O)c1c(O)c2ccccc2n(CC(C)C)c1=O [compound 551, 4-hydroxy-1-isobutyl-N-(3-methylpyridin-4-yl)-2-oxo-1,2-dihydroquinoline-3-carboxamide]
IC50 [1, 3]: 6.7 µM

CC(C)Cn1c(=O)c(C(=O)Nc2cccc(N3CCOCC3)c2)c(O)c2ccccc21 [compound 554, 4-hydroxy-1-isobutyl-N-(3-morpholinophenyl)-2-oxo-1,2-dihydroquinoline-3-carboxamide]
IC50 [1, 3]: 4.3 µM

Cc1cccnc1NC(=O)c1c(O)c2c(Br)cccc2n(CC(C)C)c1=O [compound 563, 5-bromo-4-hydroxy-1-isobutyl-N-(3-methylpyridin-2-yl)-2-oxo-1,2-dihydroquinoline-3-carboxamide]
IC50 [1, 3]: 8 µM
